Measured values taken from PubChem BioAssay AID2060484 (Molecular Pharmacology Branch, DTP, NCI, 2025).

Test system: SUM149PT spheroids with HUVEC/MSC, viability
Assay: Anticancer human tumor SUM149PT cell line growth inhibition [GQUAD];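 note: spheroids exposed to drugs for seven days before readout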;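 for viability, T/C: percent viability relative to DMSO vehicle control taken as 100%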
Settings: for IC50: curve of first compound; for viability, T/C: stronger effect = lower value
In short: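 Tumor cells were grown as complex spheroids with HUVEC endothelial cells and mesenchymal stem cells as stroma. G-quadruplex stabilizers were combined with targeted agents over half-log dilutions from near the clinical Cmax, or from 10 microM.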

[1] = second compound 0.0316 µM, first compound 0.0316 µM
[2] = second compound 0.0316 µM, first compound 0.316 µM
[3] = second compound 0.1 µM, first compound 0.0316 µM
[4] = second compound 0.1 µM, first compound 0.316 µM
[5] = second compound 0.316 µM, first compound 0.0316 µM
[6] = second compound 0.316 µM, first compound 0.316 µM
[7] = second compound 1 µM, first compound 0.0316 µM
[8] = second compound 1 µM, first compound 0.316 µM
[9] = second compound 3.16 µM, first compound 0.0316 µM
[10] = second compound 3.16 µM, first compound 0.316 µM
[11] = second compound 10 µM, first compound 0.0316 µM
[12] = second compound 10 µM, first compound 0.316 µM
[13] = second compound 0.0316 µM, first compound 0.000999 µM
[14] = second compound 0.0316 µM, first compound 0.00316 µM
[15] = second compound 0.0316 µM, first compound 0.00999 µM
[16] = second compound 0.0316 µM, first compound 0.0999 µM
[17] = second compound 0.1 µM, first compound 0.000999 µM
[18] = second compound 0.1 µM, first compound 0.00316 µM
[19] = second compound 0.1 µM, first compound 0.00999 µM
[20] = second compound 0.1 µM, first compound 0.0999 µM
[21] = second compound 0.316 µM, first compound 0.000999 µM
[22] = second compound 0.316 µM, first compound 0.00316 µM
[23] = second compound 0.316 µM, first compound 0.00999 µM
[24] = second compound 0.316 µM, first compound 0.0999 µM
[25] = second compound 1 µM, first compound 0.000999 µM
[26] = second compound 1 µM, first compound 0.00316 µM
[27] = second compound 1 µM, first compound 0.00999 µM
[28] = second compound 1 µM, first compound 0.0999 µM
[29] = second compound 3.16 µM, first compound 0.000999 µM
[30] = second compound 3.16 µM, first compound 0.00316 µM
[31] = second compound 3.16 µM, first compound 0.00999 µM
[32] = second compound 3.16 µM, first compound 0.0999 µM
[33] = second compound 10 µM, first compound 0.000999 µM
[34] = second compound 10 µM, first compound 0.00316 µM
[35] = second compound 10 µM, first compound 0.00999 µM
[36] = second compound 10 µM, first compound 0.0999 µM

`Cc1cccc(N(C)C(=O)C2C(O)CCN2c2nc(C)cc(C(F)(F)F)c2C#N)c1` (stereo unspecified) + Cc1cnc(CNC(=O)c2c(=O)c3ccc(N4CCCN(C)CC4)nc3n3c2sc2ccccc23)cn1 was tested, and the IC50 (second compound 0.0316 µM) was > 10000 nM, the IC50 (second compound 0.1 µM) was > 10000 nM and the IC50 (second compound 0.316 µM) was > 10000 nM. For the same compound, the IC50 (second compound 1 µM) was < 31.6 nM, the IC50 (second compound 3.16 µM) was < 31.6 nM and the IC50 (second compound 10 µM) was < 31.6 nM. It also gave a viability, T/C [1] of 104%, a viability, T/C (second compound 0.0316 µM, first compound 0.1 µM) of 86.5% and a viability, T/C [2] of 85%. The viability, T/C (second compound 0.0316 µM, first compound 1 µM) was 88.9%, the viability, T/C (second compound 0.0316 µM, first compound 3.16 µM) was 88% and the viability, T/C (second compound 0.0316 µM, first compound 10 µM) was 95.4%. The viability, T/C [3] was 63.1%, the viability, T/C (second compound 0.1 µM, first compound 0.1 µM) was 61.9% and the viability, T/C [4] was 78.3%. It also gave a viability, T/C (second compound 0.1 µM, first compound 1 µM) of 64.9%, a viability, T/C (second compound 0.1 µM, first compound 3.16 µM) of 75.6% and a viability, T/C (second compound 0.1 µM, first compound 10 µM) of 66.5%. For the same compound, the viability, T/C [5] was 61%, the viability, T/C (second compound 0.316 µM, first compound 0.1 µM) was 62.7% and the viability, T/C [6] was 57.4%. The viability, T/C (second compound 0.316 µM, first compound 1 µM) was 58.6%, the viability, T/C (second compound 0.316 µM, first compound 3.16 µM) was 59.5% and the viability, T/C (second compound 0.316 µM, first compound 10 µM) was 61.3%. For the same compound, the viability, T/C [7] was 45.5%, the viability, T/C (second compound 1 µM, first compound 0.1 µM) was 47.5% and the viability, T/C [8] was 48.6%. The viability, T/C (second compound 1 µM, first compound 1 µM) was 45.4%, the viability, T/C (second compound 1 µM, first compound 3.16 µM) was 49.6% and the viability, T/C (second compound 1 µM, first compound 10 µM) was 49.4%. The viability, T/C [9] was 39.2%, the viability, T/C (second compound 3.16 µM, first compound 0.1 µM) was 41.1% and the viability, T/C [10] was 41.8%. For the same compound, the viability, T/C (second compound 3.16 µM, first compound 1 µM) was 42.5%, the viability, T/C (second compound 3.16 µM, first compound 3.16 µM) was 41.2% and the viability, T/C (second compound 3.16 µM, first compound 10 µM) was 46.9%. It also gave a viability, T/C [11] of 11%, a viability, T/C (second compound 10 µM, first compound 0.1 µM) of 11.9% and a viability, T/C [12] of 33.3%. For the same compound, the viability, T/C (second compound 10 µM, first compound 1 µM) was 30.9%, the viability, T/C (second compound 10 µM, first compound 3.16 µM) was 25% and the viability, T/C (second compound 10 µM, first compound 10 µM) was 0.29%.
`Cn1ncnc1[C@H]1c2n[nH]c(=O)c3cc(F)cc(c23)N[C@@H]1c1ccc(F)cc1` + Cc1cnc(CNC(=O)c2c(=O)c3ccc(N4CCCN(C)CC4)nc3n3c2sc2ccccc23)cn1 was tested, and the IC50 (second compound 0.0316 µM) was 145 nM, the IC50 (second compound 0.1 µM) was 28.6 nM and the IC50 (second compound 0.316 µM) was 5.8 nM. For the same compound, the IC50 (second compound 1 µM) was < 0.999 nM, the IC50 (second compound 3.16 µM) was < 0.999 nM and the IC50 (second compound 10 µM) was < 0.999 nM. It also gave a viability, T/C [13] of 92.1%, a viability, T/C [14] of 68.9% and a viability, T/C [15] of 77.1%. The viability, T/C [1] was 68.2%, the viability, T/C [16] was 50.4% and the viability, T/C [2] was 42.5%. For the same compound, the viability, T/C [17] was 71.2%, the viability, T/C [18] was 63% and the viability, T/C [19] was 53.7%. The viability, T/C [3] was 52.2%, the viability, T/C [20] was 43.2% and the viability, T/C [4] was 40.8%. For the same compound, the viability, T/C [21] was 53.9%, the viability, T/C [22] was 53.4% and the viability, T/C [23] was 48.7%. For the same compound, the viability, T/C [5] was 45.4%, the viability, T/C [24] was 41.1% and the viability, T/C [6] was 41.6%. The viability, T/C [25] was 47.8%, the viability, T/C [26] was 48.8% and the viability, T/C [27] was 38.5%. It also gave a viability, T/C [7] of 41.1%, a viability, T/C [28] of 38.5% and a viability, T/C [8] of 34.2%. The viability, T/C [29] was 38.5%, the viability, T/C [30] was 39.5% and the viability, T/C [31] was 34.4%. The viability, T/C [9] was 34.6%, the viability, T/C [32] was 35.3% and the viability, T/C [10] was 33.4%. It also gave a viability, T/C [33] of 10.1%, a viability, T/C [34] of 9.37% and a viability, T/C [35] of 33.9%. For the same compound, the viability, T/C [11] was 28.9%, the viability, T/C [36] was 9.31% and the viability, T/C [12] was 0.26%.
With `CC[C@@]1(O)C(=O)OCc2c1cc1n(c2=O)Cc2cc3c(CN(C)C)c(O)ccc3nc2-1` + Cc1[nH]c2ccc(F)cc2c1-c1nc2c3cccnc3c3ncccc3c2[nH]1 the IC50 (second compound 0.0316 µM) was 85.2 nM, the IC50 (second compound 0.1 µM) was 84.8 nM and the IC50 (second compound 0.316 µM) was 80.2 nM. For the same compound, the IC50 (second compound 1 µM) was 78.3 nM, the IC50 (second compound 3.16 µM) was 85.7 nM and the IC50 (second compound 10 µM) was 77.2 nM. For the same compound, the viability, T/C [13] was 103%, the viability, T/C [14] was 89.6% and the viability, T/C [15] was 107%. It also gave a viability, T/C [1] of 85.2%, a viability, T/C [16] of 43.1% and a viability, T/C [2] of 45.6%. The viability, T/C [17] was 110%, the viability, T/C [18] was 105% and the viability, T/C [19] was 104%. For the same compound, the viability, T/C [3] was 87.3%, the viability, T/C [20] was 42.5% and the viability, T/C [4] was 45.1%. For the same compound, the viability, T/C [21] was 97.1%, the viability, T/C [22] was 99.7% and the viability, T/C [23] was 106%. For the same compound, the viability, T/C [5] was 89%, the viability, T/C [24] was 40.2% and the viability, T/C [6] was 41.5%. For the same compound, the viability, T/C [25] was 114%, the viability, T/C [26] was 99.8% and the viability, T/C [27] was 105%. For the same compound, the viability, T/C [7] was 80.2%, the viability, T/C [28] was 41.5% and the viability, T/C [8] was 40.2%. For the same compound, the viability, T/C [29] was 82.7%, the viability, T/C [30] was 97.8% and the viability, T/C [31] was 99%. For the same compound, the viability, T/C [9] was 91.7%, the viability, T/C [32] was 43.1% and the viability, T/C [10] was 44.1%. It also gave a viability, T/C [33] of 96.1%, a viability, T/C [34] of 86.8% and a viability, T/C [35] of 108%. The viability, T/C [11] was 85.1%, the viability, T/C [36] was 40.5% and the viability, T/C [12] was 38.7%.
